Data as given in PubChem BioAssay AID192 (DTP/NCI, 2004).
Values joined by “and” are separate entries in the source; they are usually repeats but may differ in a detail not shown here. Equal entries are not always repeated. Toxic doses and inconclusive results are not listed.

Tested on: BDF1 mice, B16 melanoma ip, median survival T/C
Experiment: NCI In Vivo Anticancer Drug Screen. Data for tumor model B16 Melanoma (intraperitoneal) in B6D2F1 (BDF1) mice
Conditions: endpoint: median survival time, higher = longer survival
Procedure, shortened: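 Compounds were tested in mice carrying transplantable tumors. Survival or tumor size was recorded, and each value is the treated-group measurement (T) divided by that of the vehicle-treated control group (C).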

[1] = dose: 0.12 mg/kg/injection, schedule: Q01DX009 (ip), vehicle: saline with Tween-80
[2] = dose: 0.25 mg/kg/injection, schedule: Q01DX009 (ip), vehicle: saline with Tween-80
[3] = dose: 12.5 mg/kg/injection, schedule: Q01DX009 (ip), vehicle: saline
[4] = dose: 25.0 mg/kg/injection, schedule: Q01DX009 (ip), vehicle: saline
[5] = dose: 50.0 mg/kg/injection, schedule: Q01DX009 (ip), vehicle: saline
[6] = dose: 100.0 mg/kg/injection, schedule: Q01DX009 (ip), vehicle: saline
[7] = dose: 50.0 mg/kg/injection, schedule: Q01DX009 (ip), vehicle: Klucel (hydroxypropylcellulose) (HPC)
[8] = dose: 3.12 mg/kg/injection, schedule: Q01DX009 (ip), vehicle: saline
[9] = dose: 6.25 mg/kg/injection, schedule: Q01DX009 (ip), vehicle: saline
[10] = dose: 25.0 mg/kg/injection, schedule: Q01DX009 (ip), vehicle: saline with Tween-80
[11] = dose: 50.0 mg/kg/injection, schedule: Q01DX009 (ip), vehicle: saline with Tween-80
[12] = dose: 100.0 mg/kg/injection, schedule: Q01DX009 (ip), vehicle: saline with Tween-80
[13] = dose: 100.0 mg/kg/injection, schedule: Q01DX009 (ip), vehicle: Klucel (hydroxypropylcellulose) (HPC)
[14] = dose: 200.0 mg/kg/injection, schedule: Q01DX009 (ip), vehicle: Klucel (hydroxypropylcellulose) (HPC)
[15] = dose: 200.0 mg/kg/injection, schedule: Q01DX009 (ip), vehicle: saline with Tween-80
[16] = dose: 400.0 mg/kg/injection, schedule: Q01DX009 (ip), vehicle: Klucel (hydroxypropylcellulose) (HPC)
[17] = dose: 6.25 mg/kg/injection, schedule: Q01DX009 (ip), vehicle: saline with Tween-80
[18] = dose: 12.5 mg/kg/injection, schedule: Q01DX009 (ip), vehicle: saline with Tween-80
[19] = dose: 3.13 mg/kg/injection, schedule: Q01DX009 (ip), vehicle: water
[20] = dose: 6.25 mg/kg/injection, schedule: Q01DX009 (ip), vehicle: water
[21] = dose: 12.5 mg/kg/injection, schedule: Q01DX009 (ip), vehicle: water

For `Cc1c(CNc2ccc(C(=O)NC(CC(=O)O)CC(=O)O)cc2)ccc2nc(N)nc(N)c12`, the T/C (dose: 0.05 mg/kg/injection, schedule: Q01DX009 (ip), vehicle: saline) was 111 % of control, the T/C (dose: 0.1 mg/kg/injection, schedule: Q01DX009 (ip), vehicle: saline) was 111 % of control and the T/C [1] was 102 % of control. For the same molecule, the T/C (dose: 0.2 mg/kg/injection, schedule: Q01DX009 (ip), vehicle: saline) was 116 % of control, the T/C [2] was 91 % of control and the T/C (dose: 0.37 mg/kg/injection, schedule: Q01DX009 (ip), vehicle: saline) was 100 % of control.

`O=c1[nH]c(=O)n2n1CC(Br)C(Br)C2` (stereo not drawn) was tested, and the T/C (dose: 100.0 mg/kg/injection, schedule: Q04DX003 (ip), vehicle: saline with Tween-80) was 97 % of control, the T/C (dose: 200.0 mg/kg/injection, schedule: Q04DX003 (ip), vehicle: saline with Tween-80) was 102 % of control and the T/C (dose: 400.0 mg/kg/injection, schedule: Q04DX003 (ip), vehicle: saline with Tween-80) was 110 % of control.

In the case of `OCCNCCNc1ccnc2cc(Cl)ccc12`, the T/C [3] is reported as 89 % of control, the T/C [4] is reported as 104 % of control and the T/C [5] is reported as 99 % of control. For the same molecule, the T/C [6] was 110 % of control.

For `O=C(Nc1cccc(C(F)(F)F)c1)c1cc(Br)cc(Br)c1O`, the T/C (dose: 12.5 mg/kg/injection, schedule: Q01DX009 (ip), vehicle: Klucel (hydroxypropylcellulose) (HPC)) was 108 % of control, the T/C (dose: 25.0 mg/kg/injection, schedule: Q01DX009 (ip), vehicle: Klucel (hydroxypropylcellulose) (HPC)) was 106 % of control and the T/C [7] was 110 % of control.

`CN(C)CC/C=C1\c2ccccc2CSc2ccccc21` was tested, and the T/C [8] was 90 % of control and 100 % of control, the T/C [9] was 89 % of control and 100 % of control and the T/C [3] was 97 % of control. The T/C [4] was 104 % of control and the T/C [5] was 95 % of control and 102 % of control.

With `Cc1ccc(NS(=O)(=O)c2ccc(Cl)cc2)cc1Cl` the T/C [10] was 99 % of control, the T/C [11] was 99 % of control and the T/C [12] was 95 % of control.

For `CCCCOB(/C=C/Sc1ccccc1)OCCCC`, the T/C [9] was 101 % of control, the T/C [3] was 119 % of control and the T/C [4] was 100 % of control. The T/C (dose: 35.0 mg/kg/injection, schedule: Q01DX009 (ip), vehicle: saline) was 117 % of control, the T/C [7] was 102 % of control and the T/C (dose: 300.0 mg/kg/injection, schedule: Q01DX009 (ip), vehicle: Klucel (hydroxypropylcellulose) (HPC)) was 101 % of control.

With `C/C=C(\C)C(=O)OC1CC[N+]2([O-])CCC(COC(=O)/C(=C/C)CO)C12` (stereo not drawn) the T/C (dose: 18.8 mg/kg/injection, schedule: Q01DX009 (ip), vehicle: saline) was 102 % of control, the T/C (dose: 37.5 mg/kg/injection, schedule: Q01DX009 (ip), vehicle: saline) was 109 % of control and the T/C (dose: 75.0 mg/kg/injection, schedule: Q01DX009 (ip), vehicle: saline) was 107 % of control. The T/C (dose: 150.0 mg/kg/injection, schedule: Q01DX009 (ip), vehicle: saline) was 107 % of control.

For `CC(C)C1(c2ccsc2)NC(=O)NC1=O` (stereo not drawn), the T/C [7] was 108 % of control, the T/C [13] was 122 % of control and the T/C [14] was 109 % of control.

In the case of `CC(=O)Nc1ccn(C2OC(CO)C(O)C2O)c(=O)n1` (stereo not drawn), the T/C [10] is reported as 88 % of control, the T/C [11] is reported as 97 % of control and the T/C [15] is reported as 92 % of control.

In the case of `O=[N+]([O-])c1ccc2c(c1)=N/C(=N\c1nc(O)c(O)[nH]1)N=2`, the T/C [13] is reported as 86 % of control, the T/C [14] is reported as 100 % of control and the T/C [16] is reported as 103 % of control.

For `CCN(CC)[P+](c1ccccc1O)(N(CC)CC)N(CC)CC`, the T/C (dose: 1.56 mg/kg/injection, schedule: Q01DX009 (ip), vehicle: saline) was 100 % of control, the T/C [8] was 105 % of control and the T/C [9] was 107 % of control and 114 % of control.

In the case of `CS(=O)(=O)c1cc(=O)[nH]c(=O)[nH]1`, the T/C [10] is reported as 95 % of control and the T/C [12] is reported as 92 % of control.

`O=C1C(=O)c2ccccc2-c2ccccc21.O=C1C(=O)c2ccccc2-c2ccccc21.[Hg]` was tested, and the T/C (dose: 1.5 mg/kg/injection, schedule: Q01DX009 (ip), vehicle: saline with Tween-80) was 94 % of control and 99 % of control and the T/C (dose: 3.0 mg/kg/injection, schedule: Q01DX009 (ip), vehicle: saline with Tween-80) was 88 % of control and 90 % of control.

With `CC(=O)OC(OC(C)=O)c1ccc([N+](=O)[O-])cc1` the T/C [12] was 93 % of control, the T/C [15] was 95 % of control and the T/C (dose: 400.0 mg/kg/injection, schedule: Q01DX009 (ip), vehicle: saline with Tween-80) was 86 % of control.

For `CC1CCC(=C(c2ccccc2)c2ccccc2)C(C)N1C` (stereo not drawn), the T/C (dose: 25.0 mg/kg/injection, schedule: Q04DX003 (ip), vehicle: saline with Tween-80) was 105 % of control and the T/C (dose: 50.0 mg/kg/injection, schedule: Q04DX003 (ip), vehicle: saline with Tween-80) was 93 % of control.

`OC1CCCC2CCCNC12` (stereo not drawn) was tested, and the T/C (dose: 3.12 mg/kg/injection, schedule: Q01DX009 (ip), vehicle: saline with Tween-80) was 100 % of control, the T/C [17] was 108 % of control and the T/C [18] was 99 % of control. The T/C [10] was 96 % of control and the T/C [11] was 96 % of control.

In the case of `COC(=O)C(C#N)=C(C)C`, the T/C (dose: 10.0 mg/kg/injection, schedule: Q01DX009 (ip), vehicle: saline with Tween-80) is reported as 100 % of control, the T/C (dose: 20.0 mg/kg/injection, schedule: Q01DX009 (ip), vehicle: saline with Tween-80) is reported as 98 % of control and the T/C (dose: 40.0 mg/kg/injection, schedule: Q01DX009 (ip), vehicle: saline with Tween-80) is reported as 94 % of control.

With `COC1=CC(=O)C(C2CC(=O)c3c(O)cc(O)cc3O2)=CC1=O` (stereo not drawn) the T/C (dose: 3.13 mg/kg/injection, schedule: Q01DX009 (ip), vehicle: saline with Tween-80) was 102 % of control, the T/C [17] was 91 % of control and the T/C [18] was 89 % of control.

For `CC(=O)NC1=C(N2CC2)C(=O)C(NC(C)=O)=C(N2CC2)C1=O`, the T/C [1] was 106 % of control and 112 % of control, the T/C (dose: 0.25 mg/kg/injection, schedule: Q01DX005 (ip), vehicle: saline with Tween-80) was 103 % of control and 109 % of control and the T/C [2] was 107 % of control and 112 % of control. The T/C (dose: 0.5 mg/kg/injection, schedule: Q01DX005 (ip), vehicle: saline with Tween-80) was 107 % of control, the T/C (dose: 0.5 mg/kg/injection, schedule: Q01DX009 (ip), vehicle: saline with Tween-80) was 124 % of control and the T/C (dose: 1.0 mg/kg/injection, schedule: Q01DX005 (ip), vehicle: saline with Tween-80) was 116 % of control and 121 % of control. The T/C (dose: 2.0 mg/kg/injection, schedule: Q01DX009 (ip), vehicle: saline with Tween-80) was 157 % of control, the T/C (dose: 7.0 micrograms/kg/injection, schedule: Q01DX009 (ip), vehicle: saline) was 102 % of control and the T/C (dose: 15.0 micrograms/kg/injection, schedule: Q01DX009 (ip), vehicle: saline) was 95 % of control. The T/C (dose: 31.0 micrograms/kg/injection, schedule: Q01DX009 (ip), vehicle: saline) was 92 % of control, the T/C (dose: 62.0 micrograms/kg/injection, schedule: Q01DX009 (ip), vehicle: saline) was 116 % of control and the T/C (dose: 125.0 micrograms/kg/injection, schedule: Q01DX009 (ip), vehicle: saline) was 95 % of control.

In the case of `CNC(=S)N/N=C1/c2cc(Cl)ccc2-c2c(Cl)cc(Cl)cc21`, the T/C [17] is reported as 91 % of control.

For `CC(=O)ON1C(=O)C=CC1=O`, the T/C [19] was 92 % of control, the T/C [20] was 103 % of control and the T/C [21] was 106 % of control. The T/C (dose: 25.0 mg/kg/injection, schedule: Q01DX009 (ip), vehicle: water) was 87 % of control.

`O=C(O)O` was tested, and the T/C [6] was 102 % of control, the T/C (dose: 200.0 mg/kg/injection, schedule: Q01DX009 (ip), vehicle: saline) was 97 % of control and the T/C (dose: 400.0 mg/kg/injection, schedule: Q01DX009 (ip), vehicle: saline) was 94 % of control.

`Cc1ccc([N+](=O)[O-])c(C)c1` was tested, and the T/C [13] was 94 % of control, the T/C [14] was 102 % of control and the T/C [16] was 94 % of control.

For `C1CC[N-]CC1.[Cl][Pt+2][Cl].[NH-]C1CC1`, the T/C (dose: 3.12 mg/kg/injection, schedule: Q01DX009 (ip), vehicle: water) was 105 % of control, the T/C [19] was 151 % of control and the T/C [20] was 152 % of control. The T/C [21] was 119 % of control.
